Assay results taken from US10324079B2, “Method for rapid testing allergy” (priority 2013, dated 2019).

What was measured:
Assay type in all cases: cell-based, human
[1] = test system: lymphocytes of the patient; test: DLST (drug-induced lymphocyte stimulation test)
Description: (§1) The patient having the typical allergy-like symptom (skin lesion) and the atypical patient were tested by the three different methods, namely the DLST, which is widely used for clinical tests, the LMT, which is sometimes reported more accurate than the DLST, and the present method, and then the results were compared. […] The typical case was determined as negative though the patient clearly developed the skin symptom of the toxic epidermal necrolysis (TEN) according to the clinical presentation and the clinical course.

[2] = test system: leukocytes of the patient; test: LMT (leukocyte migration test); settings: positive with MI value > 150 and p < 0.05
Description: as §1

[3] = test system: Peripheral blood Mononuclear cells (PBMC) of patient #3; leukocytes of a healthy volunteer as chemotactic cells; test: Migration of healthy-volunteer leukocytes toward reactive solution of patient #3 mononuclear cells stimulated with suspected drug (Example 3); settings: for chemotaxis or migration ability of the chemotactic cells (FIG. 5A): images recorded for 20 minutes; for Distance (judgment of migration distance, % of control) / Velocity (judgment of migration velocity, % of control): patient #3 PBMC + serum, 72 h, suspected drugs at ½ of Cmax, PHA 1 μg/ml, relative to PHA-stimulated reactive solution
Description: Leukocytes including granulocytes such as neutrophils were separated from heparinized blood of a healthy volunteer who had no allergic symptom by the density gradient centrifugation (Lymphocyte (Registered Trademark)—poly: CEDARLANE Labs. Ltd., Ontario, Canada) in accordance with a conventional method, and suspended in 5 ml of a culture medium (RPMI 1640: Sigma-Aldrich, MO, USA). After culturing the cells in a CO2 incubator at 37° C. for 1 hour the cells was adjusted to the concentration of about 5×10^5 cells/ml and used as chemotactic cells.
The chemotactic cells were injected into the lower well in the holder of EZ-TAXIScan™ (GE Healthcare, Tokyo) at about 5 μl/well, and were drawn to the end of the observation terrace by suction. Subsequently, the serum was injected into the upper well at 1.5 μl/well with a microsyringe to create a concentration gradient on the observation terrace, and images of the chemotactic cells on the observation terrace were sequentially recorded. The depth of the terrace was 4 μm.
The kinetics of the chemotactic cells migrating on the observation terrace was analyzed with software for processing images, ImageJ (NIH, MD, USA). Various parameters concerned with chemotaxis or migration ability of the cell toward the serum such as velocity, distance and direction of the migration were calculated. The statistical analysis was performed using GraphPad Prism (Registered Trademark) (GraphPad Software, CA, USA).
A drug solution was prepared by dissolving a drug in a Hank's balanced salt solution (HBSS: Sigma-Aldrich) if the drug was a solid preparation such as a soluble tablet or a powder. If the drug was poorly soluble, it was dissolved in Dimethyl-sulfoxide (DMSO: Sigma-Aldrich) and the solution was diluted with HBSS so that the final concentration of DMSO was 1% or less. A solution containing the drug solution and the serum of the patient in a ratio of 1:1 was used as a solution of the antigenic drug. The concentrations of the suspected drugs were set to ½ of the Cmax in principle. The concentration of phytohemagglutinin (PHA: Wako Pure Chemical Industries, Ltd., Osaka), a control antigen for stimulating or activating the lymphocytes, was set to 1 μg/ml.
Peripheral blood Mononuclear cells (PBMC) were separated from heparinized blood of the patient by density gradient centrifugation (Lymphoprep™: Axis-Shield PoC, Oslo, Norway) in a conventional manner, washed with HBSS, and then adjusted to the concentration of about 5×10^6 cells/ml with a culture medium for reaction (RPMI 1640 containing 10% horse serum (Invitrogen, CA, USA)).
A mixture of the suspension of the mononuclear cells and the solution of the antigenic drug in a ratio of 4:1 was reacted in a CO2 incubator at 37° C. for 72 hours, and the supernatant was used as a reactive solution stimulated with the antigen. PHA (a), gasmotin (b), dogmatyl (c), pariet (d) and DMSO (e) were used as the antigen.
The cell kinetics was measured in the substantially same manner as in Example 1 excepting that the reactive solution stimulated with the antigen was injected into the upper well in place of the serum.

[4] = patient #3, vs other suspected drugs and solvent (c, d and e), p<0.05

`CO/N=C(\C(=O)N[C@@H]1C(=O)N2C(C(=O)O)=C(C[N+]3(C)CCCC3)CS[C@H]12)c1csc(N)n1` [Maxipime] was tested, and the “DLST (SI value)” value ([1]; Patient A, positive with SI value > 180) was 112 and the “LMT (MI value)” value ([2]; Patient A) was 88.21.

In the case of phytohemagglutinin [PHA], the “chemotaxis or migration ability of the chemotactic cells (FIG. 5A)” value ([3]; patient #3) is reported as “weaker than that induced with (b) but stronger than those induced with the other suspected drugs”, the “Distance (judgment of migration distance, % of control)” value [3] is reported as “+ (90~120)” and the “Velocity (judgment of migration velocity, % of control)” value [3] is reported as “+ (90~120)”. The “DLST (SI value)” value ([1]; Patient A, class symbol) was “+ (Positive with *SI value > 180 (DLST))”, the “DLST (SI value)” value ([1]; Patient B, class symbol) was “+ (Positive with *SI value > 180 (DLST))” and the “LMT (MI value)” value ([2]; Patient A) was 154.87. For the same compound, the “LMT (MI value)” value ([2]; Patient B) was 283.9.

In the case of Mosapride citrate hydrate [gasmotin], the “chemotaxis or migration ability of the chemotactic cells (FIG. 5A)” value ([3]; patient #3) is reported as “rapid migration of the chemotactic cells in the positive direction of the density gradient”, the “migration distance (FIG. 5C)” value [3, 4] is reported as “significantly larger” and the “migration velocity (FIG. 5B)” value [3, 4] is reported as “significantly larger”. For the same compound, the “Distance (judgment of migration distance, % of control)” value [3] was “++ (>120)” and the “Velocity (judgment of migration velocity, % of control)” value [3] was “++ (>120)”.

With `CCC(C)n1ncn(-c2ccc(N3CCN(c4ccc(OCC5COC(Cn6cncn6)(c6ccc(Cl)cc6Cl)O5)cc4)CC3)cc2)c1=O` (stereo not shown) [Itraconazole] the “DLST (SI value)” value ([1]; Patient B, test 1, positive with SI value > 180) was 151, the “DLST (SI value)” value ([1]; Patient B, test 2, positive with SI value > 180) was 90 and the “LMT (MI value)” value ([2]; Patient B, test 2) was 135.5.

For `CCN1CCCC1CNC(=O)c1cc(S(N)(=O)=O)ccc1OC` (stereo not shown) [dogmatyl, Sulpride], the “Velocity (judgment of migration velocity, % of control)” value [3] was “+/− (80~90)”.

For `COCCCOc1ccnc(C[S+]([O-])c2nc3ccccc3[nH]2)c1C` (stereo not shown) [pariet, Rabeprazole sodium], the “Velocity (judgment of migration velocity, % of control)” value [3] was “+ (90~120)”.
